Experimental data reported in ChEMBL document CHEMBL1134960, “Benzotrithiole 2-oxide: a new family of thiol-activated DNA-cleaving functionalities” (Bioorg Med Chem Lett, 2002).

Columns and labels:
Format in all cases: functional, cell-based
A498 = assay: Cytotoxicity against human kidney carcinoma cell lines A4982LM
A549 = assay: Cytotoxicity against […] cell lines A549 was determined; details: Homo sapiens
HT-29 = assay: Cytotoxicity against Colon cancer cell lines HT-29 was determined; details: Homo sapiens
[1] = Cytotoxicity against Breast cancer cell lines MDA-231 was determined; details: Homo sapiens
[2] = Cytotoxicity against […] cancer cell lines PACA2 was determined; details: Homo sapiens
PC-3 = assay: Cytotoxicity against prostate cancer cell lines PC-3 was determined; details: Homo sapiens
UMUC3 = assay: Cytotoxicity against bladder cancer cell lines UMUC3 was determined; details: Homo sapiens
MCF7 = assay: Cytotoxicity against human breast carcinoma cell lines MCF-7

Structure (SMILES) | IC50 (A498) | IC50 (A549) | IC50 (HT-29) | IC50 [1] | IC50 [2] | IC50 (PC-3) | IC50 (UMUC3) | IC50 (MCF7)
[O-][S+]1Sc2ccccc2S1 | 850 nM | 151 nM | 78.9 nM | 627 nM | 982 nM | 62.9 nM | 366 nM | 209 nM
COc1cccc2c1C(=O)c1c(O)c3c(c(O)c1C2=O)C[C@@](O)(C(=O)CO)C[C@@H]3O[C@H]1C[C@H](N)[C@H](O)[C@H](C)O1 [DOXORUBICIN] | 52.8 nM | – | 61.8 nM | 1.95 nM | 8.7 nM | – | 9.2 nM | –
